According to US20250268884A1, “Deuterated Domperidone for Treating Gastroparesis” (CinDome Pharma, Inc., priority 2022, published 2025):

Experiments:
Format in all cases: in vivo, human
[1] = system: adults with idiopathic or diabetic gastroparesis; assay: PAGI-SYM questionnaire total and subscale scores, Phase 2a
Protocol: Subjects were Evaluated as Follows: • Days −28 to −11: Screening procedures were performed. The ANMS GCSI-DD questionnaire was completed daily for at least 14 days prior to randomization (Day 1); • Days −10 to −3: The ANMS GCSI-DD questionnaire was completed daily. A GEBT was performed on a single day within this window, with breath samples obtained twice prior to consumption of a standardized, carbon-13 (^13C)-enriched meal and then at 45, 90, 120, 150, 180, and 240 minutes after meal consumption after an 8-hour fast. […] On Day 14 (±2 days), the PAGI-SYM and Clinical Grading Assessment questionnaires were completed prior to the final dose of study drug. • A GEBT was administered 30 minutes after study drug administration on Day 14 (±2 days). Breath samples were obtained twice prior to ^13C-enriched meal consumption and then at 45, 90, 120, 150, 180, and 240 minutes after meal consumption after an 8-hour fast. If a subject withdrew from the study prior to the Day 14 (±2 days) GEBT, attempts should have been made to perform a GEBT on the last day of study drug administration. Clinical Grading Assessment Scales were also performed.
The PAGI-SYM includes 6 subscales: heartburn/regurgitation, fullness/early satiety, nausea/vomiting, bloating, upper abdominal pain, and lower abdominal pain.

[2] = system: adults with idiopathic or diabetic gastroparesis; assay: Clinical Grading Assessment Scale / CPGAS, Day 14, Phase 2a; conditions: Day 14, ITT; for CPGAS score, investigator, mean (SD) / CPGAS score, subject, mean (SD): scale +7 to −7
Text: For assessment of global clinical response, the following question was utilized at Day 14: “In thinking about the last 2 weeks, how would you say your stomach/gastroparesis-related problems/symptoms have been compared to the period before you started treatment on this study?” Responses were the following: improved, no change, or worsened. Subjects were asked to quantify their therapeutic response using the Clinical Patient Grading Assessment Scale. Subjects picked a number over a range (+7=completely better; 0=no change; −7=very much worse) that best answered the question.

[3] = system: adults with idiopathic or diabetic gastroparesis; assay: 12-lead ECG QTcF safety assessment, Phase 2a
Protocol: Safety was evaluated through assessments of Aes, vital signs, physical examinations, clinical laboratory evaluations (including prolactin), and ECG findings.

[4] = 20 mg QD, mean, Safety Population

For `[2H]c1c([2H])c([2H])c2c([nH]c(=O)n2CCCN2CCC(n3c(=O)[nH]c4cc(Cl)ccc43)CC2)c1[2H]` [Deudomperidone, 1-{3-[4-(5-chloro-2-oxo-2,3-dihydro-1H-1,3-benzodiazol-1-yl)piperidin-1yl]propyl}-2,3-dihydro(4,5,6,7-D4)-1H-1,3-benzodiazol-2-one], which “PAGI-SYM bloating subscale score, Day 14” value [1, 4] is on record?
The value was 2.47.

And the “PAGI-SYM bloating subscale score, Percent change from baseline to Day 14” value [1, 4]?
Its value is −36.38%.

What about the “PAGI-SYM fullness/early satiety subscale score, Baseline” value [1, 4] of the same molecule?
Its value is 3.42.

What about the “PAGI-SYM fullness/early satiety subscale score, Change from baseline to Day 14” value [1, 4] of the same molecule?
Its value is −1.10.

And the “PAGI-SYM fullness/early satiety subscale score, Day 14” value [1, 4]?
The value was 2.32.

And the “PAGI-SYM fullness/early satiety subscale score, Percent change from baseline to Day 14” value [1, 4]?
Its value is −31.45%.

And the “PAGI-SYM heartburn/regurgitation subscale score, Baseline” value [1, 4]?
Its value is 2.68.

What about the “PAGI-SYM heartburn/regurgitation subscale score, Change from baseline to Day 14” value [1, 4] of the same molecule?
The value was −1.06.

And the “PAGI-SYM heartburn/regurgitation subscale score, Day 14” value [1, 4]?
Its value is 1.62.

And the “PAGI-SYM heartburn/regurgitation subscale score, Percent change from baseline to Day 14” value [1, 4]?
Its value is −34.56%.

And the “PAGI-SYM lower abdominal pain subscale score, Baseline” value [1, 4]?
The value was 1.93.

And the “PAGI-SYM lower abdominal pain subscale score, Change from baseline to Day 14” value [1, 4]?
Its value is −0.40.

What about the “PAGI-SYM lower abdominal pain subscale score, Day 14” value [1, 4] of the same molecule?
Its value is 1.53.

What about the “PAGI-SYM lower abdominal pain subscale score, Percent change from baseline to Day 14” value [1, 4] of the same molecule?
The value was −10.91%.

And the “PAGI-SYM nausea/vomiting subscale score, Baseline” value [1, 4]?
Its value is 2.49.

And the “PAGI-SYM nausea/vomiting subscale score, Change from baseline to Day 14” value [1, 4]?
Its value is −1.20.

And the “PAGI-SYM nausea/vomiting subscale score, Day 14” value [1, 4]?
Its value is 1.29.

What about the “PAGI-SYM nausea/vomiting subscale score, Percent change from baseline to Day 14” value [1, 4] of the same molecule?
Its value is −50.18%.

What about the “PAGI-SYM total score, Baseline” value [1, 4] of the same molecule?
Its value is 2.72.

What about the “PAGI-SYM total score, Change from baseline to Day 14” value [1, 4] of the same molecule?
The value was −0.93.

What about the “PAGI-SYM total score, Day 14” value [1, 4] of the same molecule?
Its value is 1.80.

And the “PAGI-SYM total score, Percent change from baseline to Day 14” value [1, 4]?
Its value is −39.03%.

What about the “PAGI-SYM upper abdominal pain subscale score, Baseline” value [1, 4] of the same molecule?
The value was 2.27.

What about the “PAGI-SYM upper abdominal pain subscale score, Change from baseline to Day 14” value [1, 4] of the same molecule?
Its value is −0.70.

What about the “PAGI-SYM upper abdominal pain subscale score, Day 14” value [1, 4] of the same molecule?
Its value is 1.57.

What about the “PAGI-SYM upper abdominal pain subscale score, Percent change from baseline to Day 14” value [1, 4] of the same molecule?
Its value is −32.81%.

And the “PAGI-SYM total and subscale scores at Day 14” value ([1]; all deudomperidone treatment groups, placebo also decreased)?
Its value is “decreased from baseline”.

And the “Clinical Grading Assessment Scale, investigator response: Improved” value ([2]; 5 mg BID, N′ = 9)?
Its value is 6 (66.7) n (%).

And the “Clinical Grading Assessment Scale, investigator response: No change” value ([2]; 5 mg BID, N′ = 9)?
Its value is 3 (33.3) n (%).

And the “Clinical Grading Assessment Scale, investigator response: Worsened” value ([2]; 5 mg BID, N′ = 9)?
The value was 0 (0.0) n (%).

And the “Clinical Grading Assessment Scale, subject response: Improved” value ([2]; 5 mg BID, N′ = 9)?
The value was 5 (55.6) n (%).

What about the “Clinical Grading Assessment Scale, subject response: No change” value ([2]; 5 mg BID, N′ = 9) of the same molecule?
Its value is 4 (44.4) n (%).

And the “Clinical Grading Assessment Scale, subject response: Worsened” value ([2]; 5 mg BID, N′ = 9)?
Its value is 0 (0.0) n (%).

What about the “CPGAS score, investigator, mean (SD)” value ([2]; 5 mg BID) of the same molecule?
Its value is 2.2 (2.05).

And the “CPGAS score, subject, mean (SD)” value ([2]; 5 mg BID)?
Its value is 2.1 (2.26).

What about the “Clinical Grading Assessment Scale, subject response: Improved” value ([2]; 10 mg BID, N′ = 23) of the same molecule?
Its value is 17 (73.9) n (%).

What about the “Clinical Grading Assessment Scale, subject response: No change” value ([2]; 10 mg BID, N′ = 23) of the same molecule?
Its value is 5 (21.7) n (%).

And the “Clinical Grading Assessment Scale, subject response: Worsened” value ([2]; 10 mg BID, N′ = 23)?
Its value is 1 (4.3) n (%).

And the “Clinical Grading Assessment Scale, investigator response: Improved” value ([2]; 10 mg BID, N′ = 30)?
Its value is 22 (73.3) n (%).

What about the “Clinical Grading Assessment Scale, investigator response: No change” value ([2]; 10 mg BID, N′ = 30) of the same molecule?
Its value is 8 (26.7) n (%).

What about the “Clinical Grading Assessment Scale, investigator response: Worsened” value ([2]; 10 mg BID, N′ = 30) of the same molecule?
The value was 0 (0.0) n (%).

And the “CPGAS score, investigator, mean (SD)” value ([2]; 10 mg BID)?
The value was 2.5 (1.98).

And the “CPGAS score, subject, mean (SD)” value ([2]; 10 mg BID)?
The value was 3.0 (2.70).

What about the “Clinical Grading Assessment Scale, subject response: Improved” value ([2]; 20 mg QD, N′ = 14) of the same molecule?
The value was 9 (64.3) n (%).

What about the “Clinical Grading Assessment Scale, subject response: No change” value ([2]; 20 mg QD, N′ = 14) of the same molecule?
The value was 5 (35.7) n (%).

What about the “Clinical Grading Assessment Scale, subject response: Worsened” value ([2]; 20 mg QD, N′ = 14) of the same molecule?
Its value is 0 (0.0) n (%).

And the “Clinical Grading Assessment Scale, investigator response: Improved” value ([2]; 20 mg QD, N′ = 15)?
The value was 11 (73.3) n (%).

What about the “Clinical Grading Assessment Scale, investigator response: No change” value ([2]; 20 mg QD, N′ = 15) of the same molecule?
Its value is 4 (26.7) n (%).

And the “Clinical Grading Assessment Scale, investigator response: Worsened” value ([2]; 20 mg QD, N′ = 15)?
Its value is 0 (0.0) n (%).

And the “CPGAS score, investigator, mean (SD)” value ([2]; 20 mg QD)?
The value was 2.9 (2.26).

And the “CPGAS score, subject, mean (SD)” value ([2]; 20 mg QD)?
The value was 2.9 (2.62).

And the “subjects with ≥6% change from baseline in QTcF” value (“subjects with ≥6% change” for short) ([3]; 10 mg BID, Day 14 at 4 hours post-dose)?
Its value is 1 (3.6%) subjects (%).

What about the “subjects with ≥6% change” value ([3]; 10 mg BID, Day 14 at 6 hours post-dose) of the same molecule?
The value was 1 (4.3%) subjects (%).

What about the “subjects with ≥6% change” value ([3]; 20 mg QD, Day 14 at 4 hours post-dose) of the same molecule?
The value was 3 (20.0%) subjects (%).

What about the “subjects with ≥6% change” value ([3]; 20 mg QD, Day 14 at 6 hours post-dose) of the same molecule?
Its value is 2 (16.7%) subjects (%).

What about the “QTcF of subject meeting alert criteria (never increased above)” value ([3]; 1 subject, alert at 4 and 6 hours post-dose on Day 14) of the same molecule?
Its value is ≤ 426 ms.

And the “QTcF of second subject meeting alert criteria” value ([3]; Day 7, baseline QTcF average 430 msec)?
Its value is 474 ms.

What about the “prolongations of the QTcF interval” value ([3]; all dose groups) of the same molecule?
The value was “no clinically meaningful prolongations”.
